According to ChEMBL document CHEMBL1201862, “PubChem BioAssay data set” (2004):
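Five compound concentrations were applied to cells in 96-well plates for 48 hours; endpoints were derived by simple linear interpolation of the resulting dose-response curve. GI50 = concentration required for 50% inhibition of growth.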 Activity calls are given as the source filed them. Rule as the data show it: active = GI50 up to about 1.1 µM and inactive = higher.

What was measured:
Test in all cases: NCI anticancer screen, dose series, 48 h
ACHN = system: ACHN
CAKI-1 = system: CAKI-1
COLO 205 = system: COLO 205
HCC 2998 = system: HCC 2998
HCT-116 = system: HCT-116
HL-60 = system: HL-60
HOP-92 = system: HOP-92
NCI-H23 = system: NCI-H23
NCI-H460 = system: NCI-H460
OVCAR-3 = system: OVCAR-3
RXF 393 = system: RXF 393
SF-268 = system: SF-268
SF-539 = system: SF-539
SK-MEL-5 = system: SK-MEL-5
SR = system: SR
SW-620 = system: SW-620
TK-10 = system: TK-10

Structure (SMILES) | GI50 (ACHN) | GI50 (CAKI-1) | GI50 (COLO 205) | GI50 (HCC 2998) | GI50 (HCT-116) | GI50 (HL-60) | GI50 (HOP-92) | GI50 (NCI-H23) | GI50 (NCI-H460) | GI50 (OVCAR-3) | GI50 (RXF 393) | GI50 (SF-268) | GI50 (SF-539) | GI50 (SK-MEL-5) | GI50 (SR) | GI50 (SW-620) | GI50 (TK-10)
CNc1ccc(/C=C2\C=Cc3ccccc32)cc1 | 20.3 µM (inactive) | 30.1 µM (inactive) | 18.4 µM (inactive) | 16.6 µM (inactive) | 33.1 µM (inactive) | 4.45 µM (inactive) | 19.1 µM (inactive) | 16.7 µM (inactive) | 16.6 µM (inactive) | 21.2 µM (inactive) | 20.8 µM (inactive) | 5.55 µM (inactive) | 93.3 µM (inactive) | 26.5 µM (inactive) | 53.2 µM (inactive) | 33.1 µM (inactive) | 23.9 µM (inactive)
CN(C)C(=S)/N=c1\ss/c(=N\C(=S)N(C)C)n1-c1ccc(Cl)cc1 | > 100 µM (inactive) | > 100 µM (inactive) | > 100 µM (inactive) |  | > 100 µM (inactive) | > 100 µM (inactive) | > 100 µM (inactive) | > 100 µM (inactive) | > 100 µM (inactive) | > 100 µM (inactive) | > 100 µM (inactive) | > 100 µM (inactive) | > 100 µM (inactive) |  | > 100 µM (inactive) | > 100 µM (inactive) | > 100 µM (inactive)
N#CCC(=O)N/N=C(\C(=O)Nc1ccc(Cl)c(Cl)c1)C1CN(c2ccccc2)N=C1N (stereo unspecified) | > 100 µM (inactive) |  | > 100 µM (inactive) | > 100 µM (inactive) | > 100 µM (inactive) | > 100 µM (inactive) | > 100 µM (inactive) | > 100 µM (inactive) | > 100 µM (inactive) | > 100 µM (inactive) | > 100 µM (inactive) | > 100 µM (inactive) | > 100 µM (inactive) | > 100 µM (inactive) | > 100 µM (inactive) |  | > 100 µM (inactive)
COC(=O)N/N=C(\c1nc2ccc(Cl)cc2nc1O)C(O)c1ccc([N+](=O)[O-])cc1 (stereo unspecified) |  | > 100 µM (inactive) | > 100 µM (inactive) | > 100 µM (inactive) | > 100 µM (inactive) | > 100 µM (inactive) | > 100 µM (inactive) | > 100 µM (inactive) | > 100 µM (inactive) | > 100 µM (inactive) | > 100 µM (inactive) | > 100 µM (inactive) | > 100 µM (inactive) | > 100 µM (inactive) | 30.5 µM (inactive) | > 100 µM (inactive) | 
O=S1(=O)OCCOS(=O)(=O)C1(Br)Br |  | > 100 µM (inactive) | > 100 µM (inactive) | > 100 µM (inactive) | > 100 µM (inactive) | > 100 µM (inactive) | > 100 µM (inactive) | > 100 µM (inactive) |  | > 100 µM (inactive) |  | > 100 µM (inactive) | > 100 µM (inactive) | > 100 µM (inactive) | > 100 µM (inactive) | > 100 µM (inactive) | > 100 µM (inactive)
CC(=O)Nc1ccc(C2C(C(=O)Nc3ccccc3)=C(C)NC(C)=C2C(=O)Nc2ccccc2)cc1 | > 100 µM (inactive) | > 100 µM (inactive) | > 100 µM (inactive) | > 100 µM (inactive) | > 91 µM (inactive) | 39.8 µM (inactive) | > 100 µM (inactive) | > 100 µM (inactive) | > 100 µM (inactive) | > 100 µM (inactive) | > 100 µM (inactive) | > 100 µM (inactive) | > 100 µM (inactive) | > 100 µM (inactive) |  | 98.4 µM (inactive) | > 100 µM (inactive)
O=C1C2C(C(=O)N1c1ccccc1)C1c3ccccc3C2C2C(=O)N(c3ccccc3)C(=O)C21 (stereo unspecified) | 6.47 µM (inactive) | 11.3 µM (inactive) | 3.89 µM (inactive) | 3.67 µM (inactive) | 3.12 µM (inactive) | 2.9 µM (inactive) | 6.82 µM (inactive) | 18.5 µM (inactive) | 3.71 µM (inactive) | 20.7 µM (inactive) | 6.04 µM (inactive) | 5.56 µM (inactive) | 3.56 µM (inactive) | 4.44 µM (inactive) |  | 6.12 µM (inactive) | > 100 µM (inactive)
O=S1OC2(c3ccccc3-c3ccccc32)c2ccccc21 (stereo unspecified) | > 100 µM (inactive) |  | > 100 µM (inactive) | > 100 µM (inactive) | > 100 µM (inactive) | > 100 µM (inactive) |  | > 100 µM (inactive) | > 100 µM (inactive) | > 100 µM (inactive) | 53 µM (inactive) |  | > 100 µM (inactive) | > 100 µM (inactive) | > 100 µM (inactive) | > 100 µM (inactive) | > 100 µM (inactive)
O=C1C2=C(c3ccccc31)C(c1ccccc1Cl)NC(S)=N2 (stereo unspecified) | 41.8 µM (inactive) | 38.2 µM (inactive) | 69.3 µM (inactive) | > 100 µM (inactive) | 44.9 µM (inactive) | 34 µM (inactive) | 16.5 µM (inactive) | 39.4 µM (inactive) | 72.8 µM (inactive) | 38.1 µM (inactive) |  | 51.5 µM (inactive) | 97.1 µM (inactive) | 20.2 µM (inactive) |  | 74.5 µM (inactive) | 75.2 µM (inactive)
CCOC(=O)C(=O)Nc1c(CC)cccc1C(C)C | > 100 µM (inactive) | > 100 µM (inactive) | > 100 µM (inactive) | > 100 µM (inactive) | > 100 µM (inactive) |  | > 100 µM (inactive) | > 100 µM (inactive) | > 100 µM (inactive) | > 100 µM (inactive) | > 100 µM (inactive) | > 100 µM (inactive) | > 100 µM (inactive) |  | 0.0151 µM (active) | > 100 µM (inactive) | > 100 µM (inactive)
Clc1ccc2cccc3c2c1C1OC3c2ccccc21 (stereo unspecified) | > 100 µM (inactive) |  | > 100 µM (inactive) | > 100 µM (inactive) | > 100 µM (inactive) | > 100 µM (inactive) | 70.8 µM (inactive) | > 100 µM (inactive) |  | > 100 µM (inactive) | 55.5 µM (inactive) | > 100 µM (inactive) | > 100 µM (inactive) |  | > 100 µM (inactive) | > 100 µM (inactive) | > 100 µM (inactive)
COC(=O)c1oc([N+](=O)[O-])c(-c2ccccc2)c1-c1ccccc1 | > 100 µM (inactive) | > 100 µM (inactive) | 37.7 µM (inactive) | > 100 µM (inactive) | > 100 µM (inactive) |  | > 100 µM (inactive) | > 100 µM (inactive) | > 100 µM (inactive) | > 100 µM (inactive) |  | > 100 µM (inactive) | > 100 µM (inactive) | 48.3 µM (inactive) |  | > 100 µM (inactive) | > 100 µM (inactive)
N#Cc1c(N)c(C(=O)O)nn(-c2cccc(C(F)(F)F)c2)c1=O | > 100 µM (inactive) | > 100 µM (inactive) | > 100 µM (inactive) |  | > 100 µM (inactive) | > 100 µM (inactive) | 43.4 µM (inactive) | > 100 µM (inactive) | > 100 µM (inactive) | > 100 µM (inactive) | 52.5 µM (inactive) | > 100 µM (inactive) | > 100 µM (inactive) | 53 µM (inactive) | > 100 µM (inactive) | > 100 µM (inactive) | > 100 µM (inactive)
